Test results reported in US12492181B2, “Gem-disubstituted piperidine melanocortin subtype-2 receptor (MC2R) antagonists and uses thereof” (Crinetics Pharmaceuticals, Inc., priority 2019, dated 2025).

Biological target: T1, hMC2 receptor (crude hMC2R membranes from CRE-bla-CHO-K1 cells stably expressing hMC2 receptor and hMRAP accessory protein) (Homo sapiens, UniProt Q01718)
T1 construct: crude membrane fractions
Assay: hMC2 membrane binding assay ([125I]ACTH (1-39) Tyr23, SPA)
Conditions: displacement of 0.2 nM [125I]ACTH (1-39) Tyr23 from hMC2R membranes, 1.5 hours at room temperature; read-out: MC2R binding potency
Outline: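 Ki values come from non-linear regression of SPA scintillation counts, with compounds displacing [125I]ACTH(1-39) Tyr23. Membranes come from CRE-bla-CHO-K1 cells stably expressing hMC2 receptor together with hMRAP. They are preincubated with WGA-coated PVT SPA beads in 50 mM HEPES pH 7.4 with 0.20% BSA, Mg2+, Ca2+ and protease inhibitors.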

T1 sequence (Q01718 whole entry): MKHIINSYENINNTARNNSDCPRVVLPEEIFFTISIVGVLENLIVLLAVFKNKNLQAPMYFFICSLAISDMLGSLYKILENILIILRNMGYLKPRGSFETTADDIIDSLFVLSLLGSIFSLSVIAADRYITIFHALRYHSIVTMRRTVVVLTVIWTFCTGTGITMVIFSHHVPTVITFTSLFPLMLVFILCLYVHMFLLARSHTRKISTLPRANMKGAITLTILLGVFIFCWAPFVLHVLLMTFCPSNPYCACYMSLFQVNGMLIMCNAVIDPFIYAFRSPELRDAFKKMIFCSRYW
T1 sequence (Q8TCY5 whole entry partner): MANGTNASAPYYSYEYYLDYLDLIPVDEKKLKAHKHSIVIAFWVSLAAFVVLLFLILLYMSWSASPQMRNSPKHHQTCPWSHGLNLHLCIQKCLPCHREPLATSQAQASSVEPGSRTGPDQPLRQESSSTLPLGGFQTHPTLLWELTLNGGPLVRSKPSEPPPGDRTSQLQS

Ki	SMILES
< 0.01 µM	COc1ccc(F)cc1-c1ncc(C2(C(=O)N[C@H]3CCN(C)C3)CCN(c3ccc(C(F)(F)F)cc3F)CC2)cc1F [Compound 1-204, 1-[2-fluoro-4-(trifluoromethyl)phenyl]-4-[5-fluoro-6-(5-fluoro-2-methoxyphenyl)pyridin-3-yl]-N-[(3S)-1-methylpyrrolidin-3-yl]piperidine-4-carboxamide]
0.01 to 0.1 µM	CNCCCNC(=O)C1(c2ccc(-c3cccn3C)nc2)CCN(c2ccc(C(F)(F)F)cc2C#N)CC1 [Compound 1-206, 1-[2-cyano-4-(trifluoromethyl)phenyl]-4-[6-(1-methyl-1H-pyrrol-2-yl)pyridin-3-yl]-N-[3-(methylamino)propyl]piperidine-4-carboxamide]
< 0.01 µM	CN(C)CCCNC(=O)C1(c2ccc(-c3cccn3C)nc2)CCN(c2ccc(C(F)(F)F)cc2C#N)CC1 [Compound 1-207, 1-[2-cyano-4-(trifluoromethyl)phenyl]-N-[3-(dimethylamino)propyl]-4-[6-(1-methyl-1H-pyrrol-2-yl)pyridin-3-yl]piperidine-4-carboxamide]
< 0.01 µM	COc1ncc(F)cc1-c1ncc(C2(C(=O)N[C@H]3CCN(C)C3)CCN(c3ccc(C(F)(F)F)cc3C#N)CC2)cc1F [Compound 1-209, 1-[2-cyano-4-(trifluoromethyl)phenyl]-4-{3,5′-difluoro-2′-methoxy-[2,3′-bipyridin]-5-yl}-N-[(3S)-1-methylpyrrolidin-3-yl]piperidine-4-carboxamide]
< 0.01 µM	CNCCNC(=O)C1(c2ccc(-c3cccn3C)nc2)CCN(c2ccc(C(F)(F)F)cc2C#N)CC1 [Compound 1-215, 1-[2-cyano-4-(trifluoromethyl)phenyl]-4-[6-(1-methyl-1H-pyrrol-2-yl)pyridin-3-yl]-N-[2-(methylamino)ethyl]piperidine-4-carboxamide]
< 0.01 µM	CN(C)CCNC(=O)C1(c2ccc(-c3cccn3C)nc2)CCN(c2ccc(C(F)(F)F)cc2C#N)CC1 [Compound 1-216, 1-[2-cyano-4-(trifluoromethyl)phenyl]-N-[2-(dimethylamino)ethyl]-4-[6-(1-methyl-1H-pyrrol-2-yl)pyridin-3-yl]piperidine-4-carboxamide]
< 0.01 µM	COc1ccccc1-c1ccc(C2(C(=O)NC[C@@H]3CCN3C)CCN(c3ccc(C(F)(F)F)cc3C#N)CC2)cn1 [Compound 1-217, 1-[2-cyano-4-(trifluoromethyl)phenyl]-4-[6-(2-methoxyphenyl)pyridine-3-yl]-N-{[(2S)-1-methylazetidin-2-yl]methyl}piperidine-4-carboxamide]
< 0.01 µM	CCOc1ncccc1-c1ccc(C2(C(=O)NCCNC)CCN(c3ccc(C(F)(F)F)cc3F)CC2)cn1 [Compound 1-223, 4-{2′-ethoxy-[2,3′-bipyridin]-5-yl}-1-[2-fluoro-4-(trifluoromethyl)phenyl]-N-[2-(methylamino)ethyl]piperidine-4-carboxamide]
< 0.01 µM	CCOc1ccccc1-c1ccc(C2(C(=O)NCCN(C)C)CCN(c3ccc(C(F)(F)F)cc3F)CC2)cn1 [Compound 1-226, N-[2-(dimethylamino)ethyl]-4-[6-(2-ethoxyphenyl)pyridin-3-yl]-1-[2-fluoro-4-(trifluoromethyl)phenyl]piperidine-4-carboxamide]
< 0.01 µM	CCOc1ccccc1-c1ccc(C2(C(=O)NCCNC)CCN(c3ccc(C(F)(F)F)cc3F)CC2)cn1 [Compound 1-227, 4-[6-(2-ethoxyphenyl)pyridin-3-yl]-1-[2-fluoro-4-(trifluoromethyl)phenyl]-N-[2-(methylamino)ethyl]piperidine-4-carboxamide]

Further lines, the compound ahead of its results:

SMILES	Ki
CCOc1ncccc1-c1ncc(C2(C(=O)N[C@H]3CCN(C)C3)CCN(c3ccc(C(F)(F)F)cc3F)CC2)cc1F [Compound 1-201, (S)-4-(2′-ethoxy-3-fluoro-[2,3′-bipyridin]-5-yl)-1-(2-fluoro-4-(trifluoromethyl)phenyl)-N-(1-methylpyrrolidin-3-yl)piperidine-4-carboxamide]	< 0.01 µM
CCOc1ccccc1-c1ncc(C2(C(=O)N[C@H]3CCN(C)C3)CCN(c3ccc(C(F)(F)F)cc3Cl)CC2)cc1F [Compound 1-202, 1-[2-chloro-4-(trifluoromethyl)phenyl]-4-[6-(2-ethoxyphenyl)-5-fluoropyridin-3-yl]-N-[(3S)-1-methylpyrrolidin-3-yl]piperidine-4-carboxamide]	< 0.01 µM
CCOc1ncccc1-c1ncc(C2(C(=O)N[C@H]3CCN(C)C3)CCN(c3ccc(C(F)(F)F)cc3Cl)CC2)cc1F [Compound 1-203, 1-[2-chloro-4-(trifluoromethyl)phenyl]-4-{2′-ethoxy-3-fluoro-[2,3′-bipyridin]-5-yl}-N-[(3S)-1-methylpyrrolidin-3-yl]piperidine-4-carboxamide]	< 0.01 µM
Cn1cccc1-c1ccc(C2(C(=O)NCCCN)CCN(c3ccc(C(F)(F)F)cc3C#N)CC2)cn1 [Compound 1-205, N-(3-aminopropyl)-1-[2-cyano-4-(trifluoromethyl)phenyl]-4-[6-(1-methyl-1H-pyrrol-2-yl)pyridin-3-yl]piperidine-4-carboxamide]	0.01 to 0.1 µM
CCn1cccc1-c1ccc(C2(C(=O)N[C@H]3CCN(C)C3)CCN(c3ccc(C(F)(F)F)cc3C#N)CC2)cn1 [Compound 1-208, 1-[2-cyano-4-(trifluoromethyl)phenyl]-4-[6-(1-ethyl-1H-pyrrol-2-yl)pyridine-3-yl]-N-[(3S)-1-methylpyrrolidin-3-yl]piperidine-4-carboxamide]	< 0.01 µM
COc1ncc(F)cc1-c1ncc(C2(C(=O)N[C@H]3CCN(C)C3)CCN(c3ccc(C(F)(F)F)cc3F)CC2)cc1F [Compound 1-210, 4-{3,5′-difluoro-2′-methoxy-[2,3′-bipyridin]-5-yl}-1-[2-fluoro-4-(trifluoromethyl)phenyl]-N-[(3S)-1-methylpyrrolidin-3-yl]piperidine-4-carboxamide]	< 0.01 µM
COc1ccccc1-c1ccc(C2(C(=O)NCC3CN(C)C3)CCN(c3ccc(C(F)(F)F)cc3C#N)CC2)cn1 [Compound 1-211, 1-[2-cyano-4-(trifluoromethyl)phenyl]-4-[6-(2-methoxyphenyl)pyridin-3-yl]-N-[(1-methylazetidin-3-yl)methyl]piperidine-4-carboxamide]	< 0.01 µM
COc1ccccc1-c1ccc(C2(C(=O)NCCN(C)C)CCN(c3ccc(C(F)(F)F)cc3C#N)CC2)cn1 [Compound 1-212, 1-[2-cyano-4-(trifluoromethyl)phenyl]-N-[2-(dimethylamino)ethyl]-4-[6-(2-methoxyphenyl)pyridin-3-yl]piperidine-4-carboxamide]	< 0.01 µM
COc1ccccc1-c1ccc(C2(C(=O)NC[C@@H]3CCN3)CCN(c3ccc(C(F)(F)F)cc3C#N)CC2)cn1 [Compound 1-213, N-{[(2S)-azetidin-2-yl]methyl}-1-[2-cyano-4-(trifluoromethyl)phenyl]-4-[6-(2-methoxyphenyl)pyridin-3-yl]piperidine-4-carboxamide]	< 0.01 µM
CNCCNC(=O)C1(c2ccc(-c3ccccc3OC)nc2)CCN(c2ccc(C(F)(F)F)cc2C#N)CC1 [Compound 1-214, 1-[2-cyano-4-(trifluoromethyl)phenyl]-4-[6-(2-methoxyphenyl)pyridin-3-yl]-N-[2-(methylamino)ethyl]piperidine-4-carboxamide]	< 0.01 µM
COc1ccccc1-c1ccc(C2(C(=O)N[C@@H]3CN4CCC3CC4)CCN(c3ccc(C(F)(F)F)cc3C#N)CC2)cn1 [Compound 1-218, N-[(3S)-1-azabicyclo[2.2.2]octan-3-yl]-1-[2-cyano-4-(trifluoromethyl)phenyl]-4-[6-(2-methoxyphenyl)pyridin-3-yl]piperidine-4-carboxamide]	< 0.01 µM
CN1CC(NC(=O)C2(c3ccc(-c4cccn4C)nc3)CCN(c3ccc(C(F)(F)F)cc3C#N)CC2)C1 [Compound 1-219, 1-[2-cyano-4-(trifluoromethyl)phenyl]-4-[6-(1-methyl-1H-pyrrol-2-yl)pyridin-3-yl]-N-(1-methylazetidin-3-yl)piperidine-4-carboxamide]	< 0.01 µM
CN1CC(CNC(=O)C2(c3ccc(-c4cccn4C)nc3)CCN(c3ccc(C(F)(F)F)cc3C#N)CC2)C1 [Compound 1-220, 1-[2-cyano-4-(trifluoromethyl)phenyl]-4-[6-(1-methyl-1H-pyrrol-2-yl)pyridin-3-yl]-N-[(1-methylazetidin-3-yl)methyl]piperidine-4-carboxamide]	< 0.01 µM
Cn1cccc1-c1ccc(C2(C(=O)NC34CCN(CC3)C4)CCN(c3ccc(C(F)(F)F)cc3C#N)CC2)cn1 [Compound 1-221, N-{1-azabicyclo[2.2.1]heptan-4-yl}-1-[2-cyano-4-(trifluoromethyl)phenyl]-4-[6-(1-methyl-1H-pyrrol-2-yl)pyridin-3-yl]piperidine-4-carboxamide]	0.01 to 0.1 µM
CCOc1ncccc1-c1ccc(C2(C(=O)NCCN(C)C)CCN(c3ccc(C(F)(F)F)cc3F)CC2)cn1 [Compound 1-222, N-[2-(dimethylamino)ethyl]-4-{2′-ethoxy-[2,3′-bipyridin]-5-yl}-1-[2-fluoro-4-(trifluoromethyl)phenyl]piperidine-4-carboxamide]	< 0.01 µM
CCOc1ncccc1-c1ccc(C2(C(=O)NCCN(C)C)CCN(c3ccc(C(F)(F)F)cc3Cl)CC2)cn1 [Compound 1-224, 1-[2-chloro-4-(trifluoromethyl)phenyl]-N-[2-(dimethylamino)ethyl]-4-{2′-ethoxy-[2,3′-bipyridin]-5-yl}piperidine-4-carboxamide]	< 0.01 µM
CCOc1ncccc1-c1ccc(C2(C(=O)NCCNC)CCN(c3ccc(C(F)(F)F)cc3Cl)CC2)cn1 [Compound 1-225, 1-[2-chloro-4-(trifluoromethyl)phenyl]-4-{2′-ethoxy-[2,3′-bipyridin]-5-yl}-N-[2-(methylamino)ethyl]piperidine-4-carboxamide]	< 0.01 µM
